The source made the active and inactive calls. The rule behind the calls is not given here.
System: CCRIS mutagenicity, Ames/micronucleus/aberration tests
Experiment: CCRIS mutagenicity studies
[1] = Test System: AMES SALMONELLA TYPHIMURIUM, Strain/Indicator: TA98, Metabolic Activation: NONE, Method: STANDARD PLATE
[2] = Test System: AMES SALMONELLA TYPHIMURIUM, Strain/Indicator: TA100, Metabolic Activation: NONE, Method: STANDARD PLATE
[3] = Test System: AMES SALMONELLA TYPHIMURIUM, Strain/Indicator: TA1537, Metabolic Activation: NONE, Method: PREINCUBATION

C=C1[C@@H](O)[C@@H]2O[C@]3(CC[C@H](/C=C/[C@@H](C)[C@@H]4CC(C)=C[C@@]5(O[C@H](C[C@@](C)(O)C(=O)O)CCC5O)O4)O3)CC[C@H]2O[C@@H]1[C@@H](O)C[C@H](C)[C@H]1O[C@@]2(CCCCO2)CC[C@H]1C (some centres undefined)
mutagenic call (End Point: IN VITRO MICRONUCLEUS, Test System: HUMAN PERIPHERAL LYMPHOCYTES, Metabolic Activation: NONE): active; positive | mutagenic call (End Point: In vitro micronucleus, Test System: Chinese hamster ovary (CHO-K1) cells, Metabolic Activation: None): inactive; negative | mutagenic call (End Point: In vitro micronucleus, Test System: Chinese hamster ovary (CHO-K1) cells, Metabolic Activation: Rat, Liver, S-9, Phenobarbital and beta-naphthoflavone): active; positive | mutagenic call (End Point: In vitro micronucleus, Test System: Chinese hamster ovary (CHO-K1) cells, Metabolic Activation: Rat, Liver, S-9, Phenobarbital and beta-naphthoflavone, heat inactivated): inactive; negative | mutagenic call (End Point: In vitro micronucleus, Test System: Chinese hamster ovary (CHO-K1) cells, Metabolic Activation: Rat, Liver, S-9, Phenobarbital and beta-naphthoflavone, Method: FISH (fluorescein isothiocyanate isomer 1 (FITC)-conjugated peptide nucleic acid probe)): active; positive (dose-dependent increase in percentage of centromer-positive micronucle | mutagenic call (End Point: In vitro micronucleus, Test System: Human colon carcinoma Caco-2 cells, Metabolic Activation: None): active; positive | mutagenic call (Test System: AMES SALMONELLA TYPHIMURIUM, Strain/Indicator: TA98, Metabolic Activation: S-9, Method: PREINCUBATION): inactive; negative | mutagenic call (Test System: AMES SALMONELLA TYPHIMURIUM, Strain/Indicator: TA100, Metabolic Activation: S-9, Method: PREINCUBATION): inactive; negative | mutagenic call (Test System: CHINESE HAMSTER V-79, Strain/Indicator: V-79 (HGPRT)/6-THIOGUANINE, Metabolic Activation: NONE): active; positive | mutagenic call (Test System: CHINESE HAMSTER V-79, Strain/Indicator: V-79 (HGPRT)/6-THIOGUANINE, Metabolic Activation: RAT, LIVER, HEPATOCYTES): inactive; negative

C1=c2ccccc2=C2Cc3ccccc3C3=C4OC4=C1C32 (centres undefined)
mutagenic call [1]: active; positive | mutagenic call (Test System: AMES SALMONELLA TYPHIMURIUM, Strain/Indicator: TA98, Metabolic Activation: RAT, LIVER, S-9, AROCLOR 1254, Method: STANDARD PLATE): active; positive

Cc1ccc(-c2nc3n(c2[N+](=O)[O-])CCS3)cc1
mutagenic call [1]: inactive; negative | mutagenic call [2]: active; positive | mutagenic call (Test System: AMES SALMONELLA TYPHIMURIUM, Strain/Indicator: TA1535, Metabolic Activation: NONE, Method: STANDARD PLATE): inactive; negative | mutagenic call (Test System: AMES SALMONELLA TYPHIMURIUM, Strain/Indicator: TA1537, Metabolic Activation: NONE, Method: STANDARD PLATE): inactive; negative | mutagenic call (Test System: AMES SALMONELLA TYPHIMURIUM, Strain/Indicator: TA1538, Metabolic Activation: NONE, Method: STANDARD PLATE): inactive; negative

O=C(O)/C=C/C=C/CO
mutagenic call (Test System: CHINESE HAMSTER V-79, Strain/Indicator: V-79 (HGPRT)/8-AZAGUANINE, Metabolic Activation: NONE): inactive; negative

BrCc1ccc2c(c1)-c1cccc3cccc-2c13
mutagenic call [1]: active; positive | mutagenic call [2]: active; positive

CCCCCCCCCCCCCC(=O)O
mutagenic call (Test System: AMES SALMONELLA TYPHIMURIUM, Strain/Indicator: TA97, Metabolic Activation: HAMSTER, LIVER, S-9, AROCLOR 1254 (10 OR 30%), Method: PREINCUBATION): inactive; negative | mutagenic call (Test System: AMES SALMONELLA TYPHIMURIUM, Strain/Indicator: TA97, Metabolic Activation: NONE, Method: PREINCUBATION): inactive; negative | mutagenic call (Test System: AMES SALMONELLA TYPHIMURIUM, Strain/Indicator: TA97, Metabolic Activation: RAT, LIVER, S-9, AROCLOR 1254 (10%), Method: PREINCUBATION): inactive; negative | mutagenic call (Test System: AMES SALMONELLA TYPHIMURIUM, Strain/Indicator: TA97, Metabolic Activation: RAT, LIVER, S-9, AROCLOR 1254 (30%), Method: PREINCUBATION): inactive; negative | mutagenic call (Test System: AMES SALMONELLA TYPHIMURIUM, Strain/Indicator: TA98, Metabolic Activation: HAMSTER, LIVER, S-9, AROCLOR 1254 (10 OR 30%), Method: PREINCUBATION): inactive; negative | mutagenic call (Test System: AMES SALMONELLA TYPHIMURIUM, Strain/Indicator: TA98, Metabolic Activation: NONE, Method: PREINCUBATION): inactive; negative | mutagenic call (Test System: AMES SALMONELLA TYPHIMURIUM, Strain/Indicator: TA98, Metabolic Activation: RAT LIVER S-9, PHENOBARBITAL AND BETA-NAPHTHOFLAVONE, Method: PREINCUBATION): inactive; negative | mutagenic call (Test System: AMES SALMONELLA TYPHIMURIUM, Strain/Indicator: TA98, Metabolic Activation: RAT, LIVER, S-9, AROCLOR 1254 (10 OR 30%), Method: PREINCUBATION): inactive; negative | mutagenic call (Test System: AMES SALMONELLA TYPHIMURIUM, Strain/Indicator: TA100, Metabolic Activation: HAMSTER, LIVER, S-9, AROCLOR 1254 (10%), Method: PREINCUBATION): inactive; negative | mutagenic call (Test System: AMES SALMONELLA TYPHIMURIUM, Strain/Indicator: TA100, Metabolic Activation: HAMSTER, LIVER, S-9, AROCLOR 1254 (30%), Method: PREINCUBATION): inactive; negative | mutagenic call (Test System: AMES SALMONELLA TYPHIMURIUM, Strain/Indicator: TA100, Metabolic Activation: NONE, Method: PREINCUBATION): inactive; negative | mutagenic call (Test System: AMES SALMONELLA TYPHIMURIUM, Strain/Indicator: TA100, Metabolic Activation: RAT LIVER S-9, PHENOBARBITAL AND BETA-NAPHTHOFLAVONE, Method: PREINCUBATION): inactive; negative | mutagenic call (Test System: AMES SALMONELLA TYPHIMURIUM, Strain/Indicator: TA100, Metabolic Activation: RAT, LIVER, S-9, AROCLOR 1254 (10%), Method: PREINCUBATION): inactive; negative | mutagenic call (Test System: AMES SALMONELLA TYPHIMURIUM, Strain/Indicator: TA100, Metabolic Activation: RAT, LIVER, S-9, AROCLOR 1254 (30%), Method: PREINCUBATION): inactive; negative | mutagenic call (Test System: AMES SALMONELLA TYPHIMURIUM, Strain/Indicator: TA1535, Metabolic Activation: HAMSTER, LIVER, S-9, AROCLOR 1254 (10 OR 30%), Method: PREINCUBATION): inactive; negative | mutagenic call (Test System: AMES SALMONELLA TYPHIMURIUM, Strain/Indicator: TA1535, Metabolic Activation: NONE, Method: PREINCUBATION): inactive; negative | mutagenic call (Test System: AMES SALMONELLA TYPHIMURIUM, Strain/Indicator: TA1535, Metabolic Activation: RAT, LIVER, S-9, AROCLOR 1254 (10 OR 30%), Method: PREINCUBATION): inactive; negative | mutagenic call (Test System: AMES SALMONELLA TYPHIMURIUM, Strain/Indicator: TA1537, Metabolic Activation: HAMSTER, LIVER, S-9, AROCLOR 1254 (10 OR 30%), Method: PREINCUBATION): inactive; negative | mutagenic call [3]: inactive; negative | mutagenic call (Test System: AMES SALMONELLA TYPHIMURIUM, Strain/Indicator: TA1537, Metabolic Activation: RAT LIVER S-9, PHENOBARBITAL AND BETA-NAPHTHOFLAVONE, Method: PREINCUBATION): inactive; negative | mutagenic call (Test System: AMES SALMONELLA TYPHIMURIUM, Strain/Indicator: TA1537, Metabolic Activation: RAT, LIVER, S-9, AROCLOR 1254 (10 OR 30%), Method: PREINCUBATION): inactive; negative | mutagenic call (Test System: E.COLI, Strain/Indicator: WP2UVRA/PKM101, Metabolic Activation: NONE, Method: PREINCUBATION): inactive; negative | mutagenic call (Test System: E.COLI, Strain/Indicator: WP2UVRA/PKM101, Metabolic Activation: RAT LIVER S-9, PHENOBARBITAL AND BETA-NAPHTHOFLAVONE, Method: PREINCUBATION): inactive; negative

Nc1c2ccccc2nc2ccc(Br)cc12
mutagenic call [3]: active; positive

From PubChem BioAssay AID1259407 (Chemical Carcinogenesis Research Information System (CCRIS), 2018)
